{"source": "patent US9765378B2", "about": "“Preparation method of new recombinant antibacterial polypeptide medicine” (priority 2011, dated 2017)", "system": "Staphylococcus (Staphylococcus aureus, Staphylococcus epidermidis, Staphylococcus saprophyticus, and Staphylococcus sciuri)", "assay": "in vitro inhibition and bactericidal effect on bovine mastitis isolated pathogenic bacteria: Staphylococcus", "assay_type": "cell-based", "settings": "control antibiotics", "method": "(5) the recombinant antibacterial polypeptide medicine was tested for the in vitro inhibition and bactericidal effect on bovine mastitis isolated pathogenic bacteria.", "data": [{"compound": "CC(=O)OCC1=C(C(=O)O)N2C(=O)[C@@H](NC(=O)Cc3cccs3)[C@H]2SC1", "note": "[cephalothin]", "values": [{"measurement": "inhibition and bactericidal effect of controls (MIC50/MBC50 not specified)", "value": 2, "unit": "µg/mL"}]}, {"compound": "Cc1onc(-c2ccccc2)c1C(=O)N[C@@H]1C(=O)N2[C@@H]1SC(C)(C)[C@@H]2C(=O)O", "note": "[oxacillin]", "values": [{"measurement": "inhibition and bactericidal effect of controls (MIC50/MBC50 not specified)", "value": 4, "unit": "µg/mL"}]}]}
